The values below come from patent US20070213394A1 (priority 2004, published 2007).

In assay [1] the target is T1, human kappa opioid receptor (Homo sapiens, UniProt P41145).
T1 construct: expressed in transfected cells; host or cells: Chinese hamster ovary cells (CHO-hKOR), membranes
The experiment in a line: biochemical. The conditions noted are these: for Emax: 1 h, read-out: Efficacy.

The target in assay [2] is T1, human kappa opioid receptor. The assay is described as follows: biochemical. In kind it is binding.

Where two headings read alike, the source gives them in different places. A value given as a limit tells only on which side of the number the result lay.

By EC50 is commonly meant the midpoint of the concentration-response curve. Broadly, the Ki is a dissociation constant, usually derived from enzyme kinetics or from competition with a known ligand.

T1 sequence (P41145 whole entry): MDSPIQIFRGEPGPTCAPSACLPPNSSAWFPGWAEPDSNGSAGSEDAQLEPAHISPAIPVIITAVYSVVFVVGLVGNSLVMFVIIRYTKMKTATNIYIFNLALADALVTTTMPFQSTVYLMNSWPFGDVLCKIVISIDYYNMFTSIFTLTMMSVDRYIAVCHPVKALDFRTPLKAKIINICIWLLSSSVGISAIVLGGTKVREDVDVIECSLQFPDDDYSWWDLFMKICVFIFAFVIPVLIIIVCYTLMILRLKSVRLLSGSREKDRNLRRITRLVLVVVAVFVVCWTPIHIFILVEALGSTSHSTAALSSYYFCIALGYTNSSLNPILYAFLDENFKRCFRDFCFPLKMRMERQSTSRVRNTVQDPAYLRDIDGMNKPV

For the compound `CC(=O)OC1CC(C(=O)N2CCCC2C(=O)OCc2ccccc2)C2(C)CCC3C(=O)OC(c4ccoc4)CC3(C)C2C1=O` (centres unmarked) [Compound 103], in assay [1], the midpoint of the response, the EC50, lay at 348 ± 26 nM and the Emax amounted to 100%. The compound further had an inhibition constant Ki in assay [2] of 210 ± 32 nM.
As for `COC(=O)[C@@H]1C[C@H](OC)C(=O)C2[C@@]1(C)CC[C@H]1C(=O)O[C@H](c3ccoc3)C[C@]21C` (some centres unmarked) [Compound 4, 2-methoxy-salvinorin B], in assay [1], the midpoint of the response, the EC50, lay at 389 ± 76 nM and the Emax amounted to 98%. The same compound displayed a Ki in assay [2] of 220 ± 12 nM.
Regarding `CC(=O)O[C@H]1C[C@@H](C(=O)O)[C@]2(C)CC[C@@H]3C(=O)O[C@H](c4ccoc4)C[C@]3(C)C2C1=O` (stereo partly drawn) [Compound 31, epi-demethyl Salvinorin], in assay [1], the response was half-maximal at 84 nM (EC50) and the Emax was determined as 93 ± 5%. Moreover, the inhibition constant Ki in assay [2] is 17.3 nM.
For the compound `COC(=O)[C@@H]1C[C@@H](NC(C)C)C(=O)C2[C@@]1(C)CC[C@H]1C(=O)O[C@H](c3ccoc3)C[C@]21C` (stereo partly drawn) [Compound 75, 2-epi-(N-isopropyl)-salvinorin], the EC50 in assay [1] worked out at 7.2 ± 0.3 nM. This compound also registered a Ki in assay [2] of 2.3 ± 0.6 nM.
Turning to `COC(=O)C1CC(NC(C)=O)C(=O)C2C1(C)CCC1C(=O)OC(c3ccoc3)CC12C` (centres unmarked) [Compound 212a, 2-(acetamide)-salvinorin], the EC50 in assay [1] was 188 ± 2 nM. In addition, the Ki in assay [2] came out at 149 ± 1 nM.
As for `CC(=O)OC1CC(C(=O)NCC(=O)OCc2ccccc2)C2(C)CCC3C(=O)OC(c4ccoc4)CC3(C)C2C1=O` (centres unmarked) [Compound 100], in assay [1], the EC50 was 227 ± 15 nM and the Emax worked out at 105%. For the same compound, the Ki in assay [2] worked out at 470 ± 92 nM.
For `C#CCCCCOC(=O)C1CC(OC(C)=O)C(=O)C2C1(C)CCC1C(=O)OC(c3ccoc3)CC12C` (centres unmarked) [Compound 51] the same measures were 224 ± 4 nM, 104 ± 16.5% and 679 ± 112 nM.
For `COC(=O)C1CC(NC(C)C)C(=O)C2C1(C)CCC1C(=O)OC(c3ccoc3)CC12C` (centres unmarked) [Compound 210a, 2-(N-isopropyl)-salvinorin], in assay [1], the EC50 is 18.9 ± 0.6 nM and the Emax worked out at 99%. The compound also yielded a Ki in assay [2] of 17.6 ± 3.1 nM.
With `CCCC(=O)O[C@H]1C[C@@H](C(=O)OC)[C@]2(C)CC[C@H]3C(=O)O[C@H](c4ccoc4)C[C@]3(C)C2C1=O` (some centres unmarked) [Compound 3, 2-butyryl-salvinorin B], in assay [1], the concentration giving a half-maximal response (EC50) worked out at 9.9 ± 0.6 nM and the Emax turned out to be 97%. The Ki in assay [2] was 4.9 ± 0.6 nM.
Take `CCOC(=O)C1CC(OC(C)=O)C(=O)C2C1(C)CCC1C(=O)OC(c3ccoc3)CC12C` (centres unmarked) [Compound 34]: in assay [1], the 50% effective concentration (EC50) came to 94.4 ± 4.1 nM and the Emax was 110 ± 6.4%. Also, the inhibition constant (Ki) in assay [2] was 365 ± 26 nM.
For `COC(=O)[C@@H]1C[C@H](OC(N)=O)C(=O)C2[C@@]1(C)CC[C@H]1C(=O)O[C@H](c3ccoc3)C[C@]21C` (some centres unmarked) [Compound 9, 2-(O-formamide)-salvinorin B], in assay [1], the concentration for a half-maximal effect (EC50) turned out to be 6.2 ± 1.4 nM and the Emax turned out to be 99%. In assay [2], this compound registered a Ki of 3.2 ± 0.2 nM.
Take `COC(=O)[C@@H]1C[C@H](OC(=O)Nc2ccccc2)C(=O)C2[C@@]1(C)CC[C@H]1C(=O)O[C@H](c3ccoc3)C[C@]21C` (some centres unmarked) [Compound 86]: in assay [1], the EC50 amounted to 197 ± 39 nM and the Emax came out at 93%. The Ki in assay [2] was found to be 282 ± 13 nM.
For `COC(=O)C1CC(NC(C)=O)C(=O)C2C1(C)CCC1C(=O)OC(c3ccoc3)CC12C` (stereo not drawn) [Compound 212b, 2-epi-(acetamide)-salvinorin], in assay [1] (read-out: EC50), the concentration giving a half-maximal response (EC50) amounted to 339 ± 33 nM. Besides, the Ki in assay [2] (read-out: Ki) was determined as 332 ± 41 nM.
Consider `COC(=O)[C@@H]1C[C@@H](N)C(=O)C2[C@@]1(C)CC[C@H]1C(=O)O[C@H](c3ccoc3)C[C@]21C` (stereo partly drawn) [Compound 207b, 2-epi-aminosalvinorin], for which, in assay [1], the EC50 was 1370 ± 155 nM and the Emax worked out at 84%. This compound yielded a Ki in assay [2] of 223 ± 123 nM.
With `CC(=O)OC1CC(C(=O)NC(C)C(=O)OCc2ccccc2)C2(C)CCC3C(=O)OC(c4ccoc4)CC3(C)C2C1=O` (centres unmarked) [Compound 98], in assay [1], the EC50 came to 46.7 ± 7.3 nM and the Emax is 95%. In addition, in assay [2], the affinity, expressed as Ki, was 14.2 ± 0.8 nM.
As to `CNC(=O)O[C@H]1C[C@@H](C(=O)OC)[C@]2(C)CC[C@H]3C(=O)O[C@H](c4ccoc4)C[C@]3(C)C2C1=O` (some centres unmarked) [Compound 10, 2-(O—(N-methyl)formamide)-salvinorin B], in assay [1], the concentration giving a half-maximal response (EC50) was 201 ± 10 nM and the Emax is 81%. The Ki in assay [2] was found to be 83 ± 9 nM.
With `COC(=O)[C@@H]1C[C@H](OC(=O)CNC(=O)OCC2c3ccccc3-c3ccccc32)C(=O)C2[C@@]1(C)CC[C@H]1C(=O)O[C@H](c3ccoc3)C[C@]21C` (some centres unmarked) [Compound 21], in assay [1], the half-maximal effective concentration (EC50) is above 4120 nM. In assay [2], this compound returned a Ki above 277 nM.
With `COC(=O)[C@@H]1C[C@H](NC(=O)NC(=O)C(Cl)(Cl)Cl)C(=O)C2[C@@]1(C)CC[C@H]1C(=O)O[C@H](c3ccoc3)C[C@]21C` (some centres unmarked) [Compound 79], in assay [1], the 50% effective concentration (EC50) was determined as 471 ± 110 nM and the Emax was 103%. The compound also had a Ki in assay [2] of 227 ± 32 nM.
`CCNC1CC(C(=O)OC)C2(C)CCC3C(=O)OC(c4ccoc4)CC3(C)C2C1=O` (centres unmarked) [Compound 209a, 2-(N-ethyl)-salvinorin] had a concentration giving a half-maximal response (EC50) in assay [1] of 72.8 ± 4 nM. In addition, affinity in assay [2] was put at a Ki of 65 ± 24 nM.
In assay [1], `CCOC(=O)O[C@H]1C[C@@H](C(=O)OC)[C@]2(C)CC[C@H]3C(=O)O[C@H](c4ccoc4)C[C@]3(C)C2C1=O` (some centres unmarked) [Compound 30] returned a concentration for a half-maximal effect (EC50) above 1120 nM. Moreover, the Ki in assay [2] was above 78.9 nM.
For the compound `CCC(=O)N(C)[C@@H]1C[C@@H](C(=O)OC)[C@]2(C)CC[C@H]3C(=O)O[C@H](c4ccoc4)C[C@]3(C)C2C1=O` (stereo partly drawn) [Compound 81, 2-epi-(N-methylpropionamide)-salvinorin], a half-maximal response in assay [1] (EC50) required 12.6 ± 0.9 nM. In addition, in assay [2], the affinity corresponds to a Ki of 6.9 ± 1.1 nM.
In the case of `COC(=O)[C@@H]1C[C@H](OC(=O)[C@H](C)NC(C)=O)C(=O)C2[C@@]1(C)CC[C@H]1C(=O)O[C@H](c3ccoc3)C[C@]21C` (some centres unmarked) [Compound 91], in assay [1], the EC50 was 219 ± 25 nM and the Emax was determined as 93%. Moreover, the affinity in assay [2], expressed as Ki, was 176 ± 5.5 nM.
In turn, `COC(=O)[C@@H]1C[C@H](OCc2ccccc2)C(=O)C2[C@@]1(C)CC[C@H]1C(=O)O[C@H](c3ccoc3)C[C@]21C` (some centres unmarked) [Compound 17, 2-benzyloxy-salvinorin B] yielded a 50% effective concentration (EC50) in assay [1] of 161 ± 14 nM. This compound had an inhibitory constant (Ki) in assay [2] of 75.7 ± 5.9 nM.
Take `CCC(=O)O[C@H]1C[C@@H](C(=O)OC)[C@]2(C)CC[C@H]3C(=O)O[C@H](c4ccoc4)C[C@]3(C)C2C1=O` (some centres unmarked) [Compound 2, 2-propionyl-salvinorin B]: in assay [1], the EC50 is 20.4 ± 3.4 nM and the Emax was found to be 94%. For the same compound, the affinity in assay [2], expressed as Ki, was 7.2 ± 0.5 nM.
`CCCO[C@H]1C[C@@H](C(=O)OC)[C@]2(C)CC[C@H]3C(=O)O[C@H](c4ccoc4)C[C@]3(C)C2C1=O` (some centres unmarked) [Compound 16, 2-propoxy-salvinorin B]: in assay [1], the EC50 was found to be 67.4 ± 9.9 nM and the Emax was 100%. Also, in assay [2], the Ki worked out at 28.7 ± 3 nM.
Compound `CCN[C@@H]1C[C@@H](C(=O)OC)[C@]2(C)CC[C@H]3C(=O)O[C@H](c4ccoc4)C[C@]3(C)C2C1=O` (some centres unmarked) [Compound 18, 2-(N-ethylamino)-salvinorin] yielded an EC50 in assay [1] of 68.9 ± 5.3 nM. In assay [2], the affinity, expressed as Ki, was 28.9 ± 1 nM.
Take `COC(=O)C1CC(N(C)C(C)=O)C(=O)C2C1(C)CCC1C(=O)OC(c3ccoc3)CC12C` (centres unmarked) [Compound 214a, 2-(N-methylacetamide)-salvinorin]: in assay [1], the EC50 is 2.4 ± 0.7 nM and the Emax stood at 103%. Also, the Ki in assay [2] came to 3.2 ± 0.1 nM.
With `COC(=O)[C@@H]1C[C@H](OC(=O)[C@H](C)N(C)C)C(=O)C2[C@@]1(C)CC[C@H]1C(=O)O[C@H](c3ccoc3)C[C@]21C` (some centres unmarked) [Compound 92], in assay [1], the EC50 turned out to be 539 ± 11 nM and the Emax is 90%. In addition, in assay [2], the inhibitory constant (Ki) worked out at 197 ± 19 nM.
For `COC(=O)C1CC(N(C)C)C(=O)C2C1(C)CCC1C(=O)OC(c3ccoc3)CC12C` (centres unmarked) [Compound 211a, 2-(N,N-dimethyl)-salvinorin] the same measures were 240 ± 23 nM, 110% and 168 ± 10 nM.
Consider `COC(=O)C1=CC(=O)C=C2[C@@]1(C)CC[C@H]1C(=O)O[C@H](c3ccoc3)C[C@]21C` [Compound 70], for which the EC50 in assay [1] was above 5150 nM. The same compound came in with a Ki in assay [2] above 616 nM.
For `COC(=O)O[C@H]1C[C@@H](C(=O)OC)[C@]2(C)CC[C@H]3C(=O)O[C@H](c4ccoc4)C[C@]3(C)C2C1=O` (some centres unmarked) [Compound 29], in assay [1], the EC50 is above 1720 nM. The Ki in assay [2] was above 91 nM.
Regarding “2-(N,N-dimethylamino)-salvinorin [Compound 19]”, the EC50 in assay [1] (read-out: EC50) worked out at 343 ± 12 nM. Moreover, the Ki in assay [2] (read-out: Ki) came out at 90.9 ± 2.5 nM.
As to `CNC1CC(C(=O)OC)C2(C)CCC3C(=O)OC(c4ccoc4)CC3(C)C2C1=O` (centres unmarked) [Compound 208a, 2-(N-methyl)-salvinorin], in assay [1], the response was half-maximal at 825 ± 93 nM (EC50) and the Emax is 82%. In assay [2], this compound returned a Ki of 328 ± 40 nM.
Consider `CC(=O)O[C@H]1C[C@@H](C(=O)O)[C@]2(C)CC[C@H]3C(=O)O[C@H](c4ccoc4)C[C@]3(C)C2C1=O` (some centres unmarked) [Compound 32, demethyl Salvinorin], for which, in assay [1], the concentration for a half-maximal effect (EC50) was above 1230 nM. Moreover, the Ki in assay [2] is above 115 nM.
For the compound `COC(=O)[C@@H]1C[C@H](OC(C)=O)C(=O)C2[C@@]1(C)CC[C@H]1C(=O)OC(C3CCOC3)C[C@]21C` (some centres unmarked) [Compound 62], in assay [1], a half-maximal response (EC50) required 68.3 nM and the Emax is 117 ± 4.7%. In assay [2], the Ki was 19.3 nM.
In turn, `CCOC(=O)C1CC(OC(C)=O)C(=O)C2C1(C)CCC1C(=O)OC(c3ccoc3)CC12C` (centres unmarked) [Compound 33] returned an inhibition constant Ki in assay [2] above 10000 nM.
The compound `COC(=O)[C@@H]1C[C@H](OC(=O)CNC(C)=O)C(=O)C2[C@@]1(C)CC[C@H]1C(=O)O[C@H](c3ccoc3)C[C@]21C` (some centres unmarked) [Compound 26] came in with a Ki in assay [2] above 10000 nM.
In assay [1], `CCCCO[C@H]1C[C@@H](C(=O)OC)[C@]2(C)CC[C@H]3C(=O)O[C@H](c4ccoc4)C[C@]3(C)C2C1=O` (some centres unmarked) [Compound 13, 2-n-butoxy-salvinorin B] gave a concentration for a half-maximal effect (EC50) of 104 ± 17 nM. Further, in assay [2], the Ki came to 35.8 ± 5.1 nM.
Taken in the same sequence, the figures for `CCNC(=O)O[C@H]1C[C@@H](C(=O)OC)[C@]2(C)CC[C@H]3C(=O)O[C@H](c4ccoc4)C[C@]3(C)C2C1=O` (some centres unmarked) [Compound 20, 2-(O—(N-ethyl)formamide)-salvinorin B] were above 1000 nM and 462 ± 20 nM.
